Source: PMC9367672, “In vitro differences in toddalolactone metabolism in various species and its effect on cytochrome P450 expression” (Pharmaceutical Biology, 2022)

What was measured:
[1] = system: RLMs; assay: Prediction of in vivo hepatic clearance in rats from RLM kinetics; format: in vitro ADME, rat
Protocol: The in vivo hepatic clearances in oxidative metabolism and glucuronidation of toddalolactone were calculated using Equations (4)–(6) (Li et al. [2008]): (4) CLint in vitro=∑i=1nVmax(Mi)/Km(Mi) (5) CLint in vivo=CLint in vitro⋅SF (6) CLH=QH⋅fu⋅CLint in vivo/QH+fu⋅CLint in vivo where SF is the milligrams of microsomal protein per gram of liver multiplied by the grams of liver weight; CLH is hepatic clearance; fu is the unbound fraction in the blood (the value of fu was set to 1 due to the absence of available data for toddalolactone); QH is the blood flow in the liver; and Mi is the metabolite of toddalolacone. The physiological parameters to calculate intrinsic clearance were as follows. The liver weight of dogs, rats and humans were 32, 40 and 25.7 g/kg body weight, respectively; the content of microsomal protein was 77.9, 44.8 and 48.8 mg/g of liver; and the blood flow in the liver was 30.9, 55.2 and 20.7 mL/(min ⋅ kg), respectively (Naritomi et al. [2001]).

[2] = system: other rhCYP isoforms; assay: Reaction phenotyping with the other recombinant human CYP isoforms; format: in vitro ADME; conditions: other rhCYP isoforms (of thirteen), 15 nM, 37 °C, 60 min
Protocol: The CYP reaction system (200 μL) consisted of 0.1 M potassium phosphate buffer (pH 7.4), an NADPH-generating system (1 mM NADPH, 10 mM G-6-P, 1 unit/mL G-6-PD, 4 mM MgCl2), and liver microsomes or recombinant human microsomes (supersomes). Each of the in vitro enzymatic assays using liver microsomes was linear with respect to incubation time and amount of protein. After a pre-incubation at 37 °C for 3 min, the reactions were initiated by adding NADP^+. After incubating for 60 min, the reactions were quenched by adding 200 μL of ice-cold acetonitrile. Samples were centrifuged at 18,000 g for 15 min at 4 °C and 10 μL of supernatant was analyzed using an HPLC system. NADPH or CYP enzyme sources were not used in the control group to ensure that the metabolic reactions were CYP- and NADPH-dependent. All incubation assays were completed in triplicate. The data are presented as mean ± standard deviation (SD).
Thirteen cDNA-expressed human CYP isoforms (CYP1A1, CYP1A2, CYP2A6, CYP2B6, CYP2C8, CYP3A4, CYP2C19, CYP3A5, CYP1B1, CYP2C9, CYP2D6, CYP2E1 and CYP4F2) were used to identify the isoform(s) involved in the biotransformation of toddalolactone. Toddalolactone (10 μM) was incubated with each recombinant CYP (15 nM) for 60 min at 37 °C and metabolites were identified by HPLC.

[3] = system: CYP3A5; assay: Western blot of CYP3A5 protein expression in HepG2 cells; format: cell-based; conditions: 0, 10 and 50 μM, 24 h
Protocol: Hep G2 cells were seeded into 100 mm Petri dishes and treated with different concentrations of toddalolactone (0, 10 and 50 µmol/L) for 24 h. Total protein was extracted using RIPA lysis buffer containing proteinase inhibitor (BestBio, Shanghai, China). After the protein concentration was measured using a bicinchoninic acid (BCA) assay kit (Beyotime, Shanghai, China), samples were electrophoretically transferred to polyvinylidene difluoride (PVDF) membranes. After blocking with TTBS (0.5% Tween 20, 10 mM Tris-HCl, pH 7.5, 150 mM NaCl) containing 5% non-fat milk for 1 h at room temperature, the membrane was incubated with antibodies against β-Actin, CYP1A1, and CYP3A5 overnight at 4 °C. Then, membranes were washed with TBS (10 mM Tris-HCl, pH 7.5, 150 mM NaCl) containing 0.05% Tween 20 three times and further incubated with HRP-conjugated secondary antibodies against rabbit (for β-actin, CYP1A1 and CYP3A5) for 1 h at room temperature.

[4] = Pharmacokinetics study in rats after intravenous administration; format: in vivo; conditions: male, Sprague-Dawley, rat, intravenous 10 mg/kg, plasma
Protocol: Six male Sprague–Dawley rats weighing 200 ± 10 g were obtained from the Laboratory Animal Center of Jinzhou Medical University. Approval of the study protocols was obtained from the Institutional Animal Ethics Committee before the commencement of the studies. Toddalolactone was administered intravenously into the tail vein at a dose of 10 mg/kg, and 0.5 mL of blood was collected through orbital venous plexus at 0, 0.25, 0.5, 0.75, 1, 2, 4, 6 and 8 h after toddalolactone administration and centrifuged at 2000 g for 5 min at 4 °C to obtain the plasma samples. The plasma (0.1 mL) was mixed with 200 μL acetonitrile, the mixture was vortexed for 30 s and then centrifuged at 20,000 g for 20 min and the supernatant was collected and analyzed by HPLC.
After intravenous administration of toddalolactone, blood samples were collected and the concentration of toddalolactone in plasma was determined. The mean plasma concentrations of toddalolactone versus time profiles are depicted in Figure 13. The pharmacokinetic (PK) parameters such as AUC0–t, t1/2, Tmax and Cmax were calculated by a noncompartmental method using the DAS 3.1 software package (Jiangxi University of Traditional Chinese Medicine, Nanchang, China).

COc1cc2oc(=O)ccc2c(OC)c1C[C@@H](O)C(C)(C)O [toddalolactone]
CLH versus hepatic blood flow (QH) ([1]; RLMs): 1.52% | clearance class according to predicted CLH ([1]; rats): low-clearance (low-clearance drugs (<30% liver blood flow)) | in vivo hepatic clearance (CLH) ([1]; rats, predicted from kinetic parameters of P1–P6, fu set to 1): 1.12 mL/(min/kg body weight) | catalysis of toddalolactone metabolism by rhCYP isoform [2]: very limited or even no catalytic activity | protein expression of CYP3A5 [3]: did not show any significant change | Tmax [4]: 15 min | AUC(0-t) ([4]; 0–8 h): 460 ng·h/mL | Cmax ([4]; mean of six): 420 ng/mL | half-life ([4]; read-out: elimination t1/2 (converted)): 63 min
